# In US20020062088A1, “System and method for statistical analysis of QT interval as a function of changes in RR interval” (priority 2000, published 2002):
# Where two headings read alike, the source gives them in different places.
# Experiments:
# [1] = test system: humans; conditions: cited from earlier work
# [2] = test system: conscious mongrel dog; conditions: in vivo
# From the text: A system for recording electrocardiogram data in accordance with the present invention is broadly shown in FIG. 6 as reference numeral 100. […] The vehicle or test compound may be administered in various ways, including but not limited to orally, intravenously, or subcutaneous.
# Heart rate (RR interval) and Lead II ECG data are collected continuously on a beat-to-beat basis at a sampling rate of 1000 Hz to allow for millisecond (ms) resolution. Using the sampled data, the QT interval and preceding RR interval are measured on individual cardiac cycles using commercially available data acquisition and analysis software. The software package used in support of the data presented here was from Gould Inc. (Po-Ne-Mah) subsidiary. This software permits visual validation of the determination of end points used in the calculation of the ECG time intervals. The collection of data is not limited to any particular method. For example, ECG time intervals can be measured using a ECG strip chart recorder. Thus, both manual and electrical data collection is possible with the present invention.
# The various treatments with vehicle or compounds are studied in a randomized fashion.
# Approximately 250 to 300 consecutive cardiac cycles are analyzed for a pre-dose period and during steady-state compound exposure. This encompasses between three to five minutes of continuous data for each data collection period. […] An asymptotic decaying exponential growth curve fit is used to describe the relationship between QT and RR interval:
# QT=A−B*exp(−C*RR/1000) (1)
# Equation (1) is used to fit the QT measurements to the preceding RR interval for each separate data set of consecutive cardiac cycles. The data from each sample period for each vehicle or compound dose is fit to the equation using a least squares nonlinear regression method such as, but not limited to, Quasi Gauss-Newton.
# The upper 95% confidence limit for the difference of the curves is determined for each of the dose-to-pre-dose comparisons. If the dose curve crosses the 95% limit, the QT and RR values and the direction of crossing is noted.
# The analysis of the compound versus vehicle effect on QT is also accomplished by comparisons of the number of prolonged points exceeding the 95% confidence interval of their respective pre-dose curves. The pre-dose curve value represents the least squares estimate of QT at that value of RR. The 95% limits are then used to compare the overall effect of the treatment (compound or vehicle) to that of the pre-dose response. The confidence limits of the two curves are combined (pooled) to determine the standard error of the difference between the pre-dose and post-dose curves. […] The extent of the confidence and prediction limits depends on the overall variability of the data and the values of the coefficients.
# The number of pre-dose data that exceed the upper 95% prediction limit (referred to herein as “outliers”) is compared to the number of post-dose data that exceed the limit for each of the time periods. A repeated measures test for significant difference between pre-dose and post-dose outliers is conducted to evaluate an effect. In the case of small but consistent effects, the repeated measures test detects significant differences better than individual tests. […] To minimize the chance of false negatives, β, conventionally known as “Type II errors,” no multiple comparison adjustments are made for the individual tests.
# Once the outliers are identified, they are compared to the pre-dose curve to estimate the magnitude of prolongation, ΔQT, above the QT-RR curve fit to the pre-dose data. The magnitude of prolongation is referenced to the curve rather than the upper 95% confidence bound because the curve is the best estimate of the QT-RR functional relationship, regardless of the number of data points.
SMILES,"QTc, clinically ([1]; clinical)",QT prolongation and sudden death in humans [1],Treatment crosses pre-dose curve [2],number and magnitude of the outliers compared to the pre-dose and vehicle response [2],post-dose curve versus pre-dose curve [2],#outliers/total (QT exceeding 95% confidence bounds of pre-dose curve) ([2]; mongrel),RR at crossing point of post-dose and pre-dose curves ([2]; mongrel) [ms],mean ΔQT (of QT exceeding 95% confidence bounds of pre-dose curve) ([2]; mongrel),ΔQT range (of QT exceeding 95% confidence bounds of pre-dose curve) ([2]; mongrel),"QTRR1000 (least squares estimate of QT at RR 1000 ms, mean ± SEM from curve fit) ([2]; mongrel, iv)","QTc, clinically ([1]; human, in vivo)"
COc1cc(N)c(Cl)cc1C(=O)NC1CCN(CCCOc2ccc(F)cc2)CC1OC (stereo not shown) [cisapride],"clear, dose-dependent increase in QTC",caused QT prolongation and sudden death,Yes:RR =,significant increase,not significantly greater than the pre-dose curve,130/324,1094,12,5 - 47,240 ± 18,–
CC(C)(C)c1ccc(C(O)CCCN2CCC(C(O)(c3ccccc3)c3ccccc3)CC2)cc1 (stereo not shown) [terfenadine],–,–,–,significant increase,–,–,–,–,–,–,"clear, dose-dependent increase in QTC"
CC(C)NCC(O)c1ccc(NS(C)(=O)=O)cc1 (stereo not shown) [sotalol],–,caused QT prolongation and sudden death,–,–,–,–,–,–,–,–,–
